Laboratory results as given in patent publication US20160183526A1, “FUNGICIDAL COMPOSITIONS” (Dow AgroSciences LLC, priority 2014, published 2016).

What was measured:
[1] = estimated from a survey of the literature; miscible means totally soluble in water in all amounts; cited from earlier work
[2] = Solubility of a mixture of Compound A and prothioconazole in benzyl acetate/AMD810 blends at 10° C. (HPLC); assay type: physicochemical; details: both actives saturated
Experimental: A study of the Compound A and prothioconazole solubility in blends of benzyl acetate/AMD810 was conducted. To each solvent blend both actives were added until each was saturated and the resulting mixtures were then stored at 10° C. until equilibrium was obtained. Aliquots of the supernatant layer were taken from each sample, filtered (0.45 μm mesh) and analyzed by HPLC to determine the solution concentration of each active in the blends.

[3] = Solubility of Compound A and prothioconazole in benzyl acetate/AMD810/cyclohexanone blends at 10° C.; assay type: physicochemical; details: one week
Experimental: A total of 20 g of each solvent blend was prepared per sample. For example, one of the blends (Blend 4) was prepared by combining cyclohexanone 0.2 (4 g), benzyl acetate 0.2 (4 g) and AMD810 0.6 (12 g). To Blend 4 were added amounts of Compound A and prothioconazole technical active ingredients to achieve saturation concentrations of each. The samples were then stored at 10° C. for one week and then were analysed for soluble active ingredient content.

[4] = Approximate relative solubility of active ingredients in organic solvents at ambient temperature; assay type: physicochemical

SMILES: CC(=O)OCc1ccccc1 [Benzyl acetate]
- Solubility of Solvent in Water [1]: 1.0 to 3.1 g/L

SMILES: CCCCOC(=O)C(C)O (stereo not shown) [Butyl lactate]
- Solubility of Solvent in Water [1]: 42 g/L

SMILES: O=C1CCCCC1 [Cyclohexanone]
- Solubility of Solvent in Water [1]: 8.6 to 25 g/L

SMILES: CCCCOC(=O)OCCCC [Di-n-butyl carbonate]
- Solubility of Solvent in Water [1]: 0.82 g/L

SMILES: CCOCCOCCO [Diethylene glycol monoethyl ether]
- Solubility of Solvent in Water [1]: Miscible

SMILES: CCOCCOCCOC(C)=O [Ethyl Diglycol Acetate]
- Solubility of Solvent in Water [1]: Miscible

SMILES: CC(C)OC(=O)c1ccccc1 [Isopropyl benzoate]
- Solubility of Solvent in Water [1]: 0.64 g/L

SMILES: CCCCCCCC/C=C\CCCCCCCC(=O)OC [Methyl oleate]
- Solubility of Solvent in Water [1]: 0.0011 g/L

SMILES: COC(=O)c1ccccc1O [Methyl salicylate]
- Solubility of Solvent in Water [1]: <5 g/L

SMILES: COC(=O)C(C)CCC(=O)N(C)C (stereo not shown) [Methyl-5-(Dimethylamino)-2-Methyl-5-Oxopentanoate]
- Solubility of Solvent in Water [1]: 79 g/L

SMILES: COC(=O)CCC(C)C(=O)OC (stereo not shown) [Pentanedioic acid, 2-methyl-1,5-dimethyl ester]
- Solubility of Solvent in Water [1]: 25 g/L

SMILES: CC1COC(=O)O1 (stereo not shown) [Propylene carbonate]
- Solubility of Solvent in Water [1]: 17.5 g/L

SMILES: OC(Cc1ccccc1Cl)(Cn1nc[nH]c1=S)C1(Cl)CC1 (stereo not shown) [Prothioconazole, prothioconazole]
- Prothioconazole Solubility at 10° C. ([2]; benzyl acetate 0 wt % in blend with AMD810): 31.3 % w/w
- Prothioconazole Solubility at 10° C. ([2]; benzyl acetate 20 wt % in blend with AMD810): 32.3 % w/w
- Prothioconazole Solubility at 10° C. ([2]; benzyl acetate 40 wt % in blend with AMD810): 33.1 % w/w
- Prothioconazole Solubility at 10° C. ([2]; benzyl acetate 60 wt % in blend with AMD810): 32.1 % w/w
- Prothioconazole Solubility at 10° C. ([2]; benzyl acetate 80 wt % in blend with AMD810): 26.6 % w/w
- Prothioconazole Solubility at 10° C. ([2]; benzyl acetate 100 wt % in blend with AMD810): 16.2 % w/w
- Prothioconazole Solubility @ 10° C. ([3]; Blend 1: cyclohexanone 0/benzyl acetate 0/AMD810 1 (weight fraction)): 34.3 % w/w
- Prothioconazole Solubility @ 10° C. ([3]; Blend 2: cyclohexanone 0/benzyl acetate 0.2/AMD810 0.8 (weight fraction)): 32.3 % w/w
- Prothioconazole Solubility @ 10° C. ([3]; Blend 3: cyclohexanone 0.2/benzyl acetate 0/AMD810 0.8 (weight fraction)): 33.9 % w/w
- Prothioconazole Solubility @ 10° C. ([3]; Blend 4: cyclohexanone 0.2/benzyl acetate 0.2/AMD810 0.6 (weight fraction)): 32.9 % w/w
- Prothioconazole Solubility @ 10° C. ([3]; Blend 5: cyclohexanone 0/benzyl acetate 0.4/AMD810 0.6 (weight fraction)): 33.1 % w/w
- Prothioconazole Solubility @ 10° C. ([3]; Blend 6: cyclohexanone 0.2/benzyl acetate 0.4/AMD810 0.4 (weight fraction)): 32.1 % w/w
- Prothioconazole Solubility @ 10° C. ([3]; Blend 7: cyclohexanone 0/benzyl acetate 0.6/AMD810 0.4 (weight fraction)): 32.1 % w/w
- Prothioconazole Solubility @ 10° C. ([3]; Blend 8: cyclohexanone 0/benzyl acetate 0.8/AMD810 0.2 (weight fraction)): 26.6 % w/w
- Prothioconazole Solubility @ 10° C. ([3]; Blend 10: cyclohexanone 0.2/benzyl acetate 0.6/AMD810 0.2 (weight fraction)): 29.9 % w/w
- Prothioconazole Solubility @ 10° C. ([3]; Blend 11: cyclohexanone 0/benzyl acetate 1/AMD810 0 (weight fraction)): 16.2 % w/w
- Prothioconazole Solubility @ 10° C. ([3]; Blend 12: cyclohexanone 0.2/benzyl acetate 0.8/AMD810 0 (weight fraction)): 18.4 % w/w
- Relative Solubility of Prothioconazole ([4]; in 2-ethylhexanol): Very Low (<10)
- Relative Solubility of Prothioconazole ([4]; in 2-ethylhexyl benzoate): Very Low (<10)
- Relative Solubility of Prothioconazole ([4]; in 2-ethylhexyl lactate): Medium (>20 to 30)
- Relative Solubility of Prothioconazole ([4]; in 2-heptanone): Low (10 to 20)
- Relative Solubility of Prothioconazole ([4]; in Alkyl naphthalene mixture): Very Low (<10)
- Relative Solubility of Prothioconazole ([4]; in Benzyl acetate): Low (10 to 20)
- Relative Solubility of Prothioconazole ([4]; in Benzyl alcohol): Medium (>20 to 30)
- Relative Solubility of Prothioconazole ([4]; in Butyl benzoate): Low (10 to 20)
- Relative Solubility of Prothioconazole ([4]; in Butyl lactate): Low (10 to 20)
- Relative Solubility of Prothioconazole ([4]; in Butylene carbonate): Very Low (<10)
- Relative Solubility of Prothioconazole ([4]; in Cyclohexanone): High (>30)
- Relative Solubility of Prothioconazole ([4]; in Di-n-butyl carbonate): Very Low (<10)
- Relative Solubility of Prothioconazole ([4]; in Diethylene glycol monoethyl ether): High (>30)
- Relative Solubility of Prothioconazole ([4]; in Ethyl Diglycol Acetate): Very Low (<10)
- Relative Solubility of Prothioconazole ([4]; in Isoparaffin): Very Low (<10)
- Relative Solubility of Prothioconazole ([4]; in Isopropyl benzoate): Very Low (<10)
- Relative Solubility of Prothioconazole ([4]; in Methyl oleate): Very Low (<10)
- Relative Solubility of Prothioconazole ([4]; in Methyl salicylate): Very Low (<10)
- Relative Solubility of Prothioconazole ([4]; in Methyl-5-(Dimethylamino)-2-Methyl-5-Oxopentanoate): High (>30)
- Relative Solubility of Prothioconazole ([4]; in N,N dimethyl fatty acid amides): High (>30)
- Relative Solubility of Prothioconazole ([4]; in N-formyl morpholine and propylene carbonate): Medium (>20 to 30)
- Relative Solubility of Prothioconazole ([4]; in Pentanedioic acid, 2-methyl-1, 5-dimethyl ester): Low (10 to 20)
- Relative Solubility of Prothioconazole ([4]; in Polyethylene glycol): Medium (>20 to 30)
- Relative Solubility of Prothioconazole ([4]; in Polypropylene glycol): Low (10 to 20)
- Relative Solubility of Prothioconazole ([4]; in Propylene carbonate): Very Low (<10)
- Relative Solubility of Prothioconazole ([4]; in Soybean oil): Very Low (<10)
- Relative Solubility of Prothioconazole ([4]; in Sulfolane): Low (10 to 20)
- Relative Solubility of Prothioconazole ([4]; in Tributoxyethyl phosphate): High (>30)
- Relative Solubility of Prothioconazole ([4]; in dimethyl esters of adipic, glutaric and succinic acids): Low (10 to 20)
